Data published in article PMC12142043, “Cell-based high-content approach for SARS-CoV-2 neutralization identifies unique monoclonal antibodies and PI3K pathway inhibitors” (Frontiers in Cell and Developmental Biology, 2025).
Structures can show the parent of a compound that is named as a salt.

Test system: SARS-CoV-2 (USA-WA1/2020) in Calu-3 cells
Type: cell-based
Settings: Calu-3, 48 h; for dsRNA signal, AU High: high dose (10 µM); for dsRNA signal, AU Low: low dose (100 nM)

Compound	dsRNA signal, AU High [AU]	dsRNA signal, AU Low [AU]
CCOc1ccc(Nc2ccc(/C(=C3C=C/C(=[N+](/CC)Cc4cccc(S(=O)(=O)[O-])c4)C=C/3C)c3ccc(N(CC)Cc4cccc(S(=O)(=O)O)c4)cc3C)cc2)cc1 [Brilliant Blue G]	11949.6	31753.4
C=C1C(=O)[C@]23[C@H](O)[C@H]1CC[C@H]2[C@@]12CO[C@]3(O)[C@@H](O)[C@@H]1C(C)(C)CC[C@@H]2O [Oridonin]	6061.2	25375.1
CCCCCCCC/C=C\CCCCCCCCCCCC(=O)O [13(Z)-Docosenoic Acid]	4336.2	49926.0
CC[C@@H]1C(=O)N(C)c2cnc(Nc3ccc(C(=O)NC4CCN(C)CC4)cc3OC)nc2N1C1CCCC1 [BI 2536]	34739.4	58236.8
Cn1cnc2c(F)c(Nc3ccc(Br)cc3Cl)c(C(=O)NOCCO)cc21 [AZD6244 (Selumetinib)]	7299.3	3732.5
COc1cc2nccc(Oc3ccc(NC(=O)C4(C(=O)Nc5ccc(F)cc5)CC4)cc3)c2cc1OC.O=C(O)C[C@H](O)C(=O)O [Cabozantinib malate (XL184)]	148.7	24276.1
COCCOc1ccc2c(c1)ncn2-c1ccc2cccc(N3CCC(N)CC3)c2n1 [CP-673451]	14720.6	4566.7
CCOC(=O)c1cc(O)c(O)c(O)c1 [Ethyl gallate]	180.5	60976.1
C=CC(=O)Nc1cc(-n2c(=O)ccc3cnc4ccc(-c5ccc(NS(C)(=O)=O)cc5)cc4c32)ccc1C [BMX-IN-1]	37737.5	26747.2
CCOC(=O)c1cnc2ccc(-c3cncc(NS(=O)(=O)c4ccccc4)c3)cn12 [HS-173]	345.7	31987.4
COc1cc(Nc2ncc(F)c(Nc3ccc4c(n3)NC(=O)C(C)(C)O4)n2)cc(OC)c1OC [R406 (free base)]	42129.8	55638.2
COC(=O)Nc1nc2ccc([S+]([O-])c3ccccc3)cc2[nH]1 (stereo not drawn) [Oxfendazole]	20012.9	47370.5
O=C1NC(=O)/C(=C/c2cccc(C(F)(F)F)c2)S1 [TCS-PIM-1-4a]	1917.5	12250.9
CNC(=O)c1ccc(Nc2ncc(C(F)(F)F)c(NCc3nccnc3N(C)S(C)(=O)=O)n2)cc1 [Defactinib]	31683.7	56452.3
CC(C)(C)c1cc(NC(=O)Nc2ccc(-c3cn4c(n3)sc3cc(OCCN5CCOCC5)ccc34)cc2)no1 [Quizartinib (AC220)]	4499.9	17036.5
O=C(NC[C@H](O)CO)c1ccncc1Nc1ccc(I)cc1F [Pimasertib (AS-703026)]	11387.3	3667.2
O=C(O)c1cc(O)c2c(c1)[C@@H]([C@H]1c3cc(C(=O)O)cc(O)c3C(=O)c3c(O[C@@H]4O[C@H](CO)[C@@H](O)[C@H](O)[C@H]4O)cccc31)c1cccc(O[C@@H]3O[C@H](CO)[C@@H](O)[C@H](O)[C@H]3O)c1C2=O [Sennoside B]	3953.3	3310.7
Nc1ncnc2c1c(I)cn2[C@@H]1O[C@H](CO)[C@@H](O)[C@H]1O [5-Iodotubercidin]	2639.0	20167.4
CS(=O)(=O)N1CCN(Cc2cc3nc(-c4cccc5[nH]ncc45)nc(N4CCOCC4)c3s2)CC1 [GDC-0941]	590.8	57346.3

Compound	dsRNA signal, AU High [AU]	dsRNA signal, AU Low [AU]
CCn1c(=O)c(-c2cc(NC(=O)Nc3ccccc3)c(F)cc2Br)cc2cnc(NC)cc21 [DCC-2618]	31390.7	17341.0
O=C(NOCC1CC1)c1ccc(F)c(F)c1Nc1ccc(I)cc1Cl [PD184352 (CI-1040)]	0.0	41067.4
AZD4547	14827.8	3634.0
O=[N+]([O-])c1ccc(Sc2cccc[n+]2[O-])c2nonc12 [NSC228155]	18547.9	54998.4
C=C1C[C@@]2(O)O[C@@]3(C[C@H]2C(C)C)[C@@H](C)CC[C@@H]13 [Curcumol]	0.0	41441.3
TA 01	672.4	13985.5
CCN(CC)CCCC(C)Nc1nc(C)cc(Nc2ccc3nc(C)cc(N)c3c2)n1 (stereo not drawn) [NSC 23766]	10192.1	15408.3
Anacardic acid	12779.5	44703.4
Cc1cc(O)c2c(c1)C(=O)c1cc(O)cc(O)c1C2=O [Emodin]	20341.5	11688.8
COc1cccc(-c2cc(=O)c3ccccc3o2)c1N [PD98059]	33353.3	27955.5
N#Cc1ccc2ncnc(NCCc3ccccc3)c2c1 [Senexin A]	30520.6	31796.6
Cl.O=S(=O)(c1cccc2cnccc12)N1CCNCC1 [HA-100 (hydrochloride)]	27295.9	14084.7
CC[C@@H](N)CNc1ccnc(-c2cc(-c3cnn(C)c3)ccc2O)n1.Cl.Cl [CRT 0066101]	0.0	45629.7
Cl.Cl.O=S(=O)(NCCNC/C=C/c1ccc(Br)cc1)c1cccc2cnccc12 [H 89 2HCl]	7807.6	56279.7
CCN(CC)CCCC(C)Nc1ccnc2cc(Cl)ccc12 (stereo not drawn) [Chloroquine diphosphate]	4180.7	1072.6
O=C(NOC[C@H](O)CO)c1ccc(F)c(F)c1Nc1ccc(I)cc1F [PD0325901]	5022.8	48059.9
CS(=O)(=O)N1CCN(Cc2cc3nc(-c4cccc5[nH]ncc45)nc(N4CCOCC4)c3s2)CC1.CS(=O)(=O)O.CS(=O)(=O)O [GDC-0941 dimethanesulfonate]	20950.7	35251.8
CCS(=O)(=O)N1CC(CC#N)(n2cc(-c3ncnc4[nH]ccc34)cn2)C1 [Baricitinib phosphate]	2518.9	32442.1
Cn1nccc1Nc1nccc(-c2ccn([C@H](CO)c3ccc(Cl)c(F)c3)c(=O)c2)n1 [GDC-0994]	4912.8	7646.0

Compound	dsRNA signal, AU High [AU]	dsRNA signal, AU Low [AU]
CNC(=O)c1ccc(-c2cnc3ncc(Cc4ccc5ncccc5c4)n3n2)cc1F [INCB28060]	59276.3	63091.3
CN1C/C=C/CCOc2cccc(c2)-c2ccnc(n2)Nc2cccc(c2)C1 [SB1317]	1210.9	26680.2
S=C(NCc1ccc2c(c1)OCO2)N1CCN(c2ncnc3c2oc2ccccc23)CC1 [Amuvatinib (MP-470, HPK 56)]	6649.7	32179.3
CNC(=O)c1cccc(-c2ccc3c(N4CCOC[C@@H]4C)nc(N4CCOC[C@@H]4C)nc3n2)c1 [AZD2014]	4130.5	12584.4
Cc1cn(-c2cc(NC(=O)c3ccc(C)c(Nc4nccc(-c5cccnc5)n4)c3)cc(C(F)(F)F)c2)cn1.Cl.O [Nilotinib monohydrochloride monohydrate]	2759.7	14574.2
C#Cc1cccc(Nc2ncnc3cc(OCCOC)c(OCCOC)cc23)c1 [Erlotinib]	7272.0	15317.7
COc1cc2ncnc(-n3nc(-c4ccccn4)nc3N)c2cc1OC [CP-466722]	23326.1	24439.1
O=c1c(O)c(-c2ccccc2)oc2cc(O)cc(O)c12 [Galangin;3,5,7-Trihydroxyflavone]	16189.5	46015.9
N#Cc1c(NC(=O)c2cccc3ccccc23)sc2c1CCCC2 [TCS JNK 5a]	1144.9	17159.4
VX-11e	6059.4	11825.4
CN(C)C(=N)N=C(N)N [Metformin HCl]	10385.6	10840.1
O=C(Nc1cc(C(F)(F)F)cc(C(F)(F)F)c1)c1cc(Cl)ccc1O [IMD 0354]	3341.9	20862.1
COCc1c(-c2ccc(NC(=O)Nc3cc(C(F)(F)F)ccc3F)c(F)c2)c2c(N)ncnn2c1CN1CCOCC1 [ACTB-1003]	28009.9	9584.0
CNC(=O)c1ccc(C)c(-n2c(C)cc(OCc3ccc(F)cc3F)c(Br)c2=O)c1 [PH-797804]	733.9	57938.0
CCCCCCCCCCCCCCCCOP(=O)([O-])OCC[N+](C)(C)C [Miltefosine]	27276.6	36330.6
Cc1ccc(Nc2nccc(N(C)c3ccc4c(C)n(C)nc4c3)n2)cc1S(N)(=O)=O [Pazopanib (GW-786034)]	41143.8	22671.3
Cc1c(NC(=O)OC[C@@H]2COCCN2)cn2ncnc(Nc3ccc4c(cnn4Cc4cccc(F)c4)c3)c12 [AC480 (BMS-599626)]	468.1	62401.2
COc1ccc2cc(-c3nc(-c4ccc([S+](C)[O-])cc4)[nH]c3-c3ccncc3)ccc2c1 (stereo not drawn) [Tie2 kinase inhibitor]	4787.9	16594.7
O=C(Nc1cc(Oc2cc(F)c(NC(=O)C3(C(=O)Nc4ccc(F)cc4)CC3)cc2F)ccn1)C1CC1 [Altiratinib]	7645.1	34585.3
